In article PMC5901969 (Pharmaceutical research, 2017):
Where two headings read alike, the source gives them in different places.

Tests used:
[1] = tested on: monocytes; conditions: absence of cobicistat; cited from earlier work
[2] = oral 100 mg QD; cited from earlier work
[3] = tested on: HIV-infected (U1) cell line; assay: Intracellular DRV concentration-time profile in HIV-infected monocytic; assay type: in vitro ADME; conditions: U1 cells
[4] = target: T1, CYP3A4 (Homo sapiens, UniProt P08684); conditions: cited from earlier work
T1 sequence (P08684 whole entry): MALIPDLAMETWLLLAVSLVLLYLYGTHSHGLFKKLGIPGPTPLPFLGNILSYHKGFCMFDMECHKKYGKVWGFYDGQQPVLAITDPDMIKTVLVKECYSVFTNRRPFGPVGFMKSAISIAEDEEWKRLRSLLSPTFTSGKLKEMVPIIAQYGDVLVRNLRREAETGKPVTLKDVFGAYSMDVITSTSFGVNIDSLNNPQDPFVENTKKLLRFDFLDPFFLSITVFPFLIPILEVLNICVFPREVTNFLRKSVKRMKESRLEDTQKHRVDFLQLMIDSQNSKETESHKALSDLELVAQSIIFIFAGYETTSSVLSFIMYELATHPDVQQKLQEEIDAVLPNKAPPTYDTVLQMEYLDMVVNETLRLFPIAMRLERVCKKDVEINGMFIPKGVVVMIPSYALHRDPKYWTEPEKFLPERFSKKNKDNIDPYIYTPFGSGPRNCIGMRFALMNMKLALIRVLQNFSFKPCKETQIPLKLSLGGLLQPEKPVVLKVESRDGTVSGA

[5] = tested on: HIV; assay type: cell-based; conditions: U1 cells, 24 h, p24
[6] = target: T1, CYP3A4; conditions: read-out: apparent Km; ethanol as CYP3A4 substrate; cited from earlier work
[7] = 10 mM and 50 mM ethanol (data not shown)

In the case of `COc1cc2c(cc1Cc1cccc(Cl)c1F)c(=O)c(C(=O)O)cn2[C@H](CO)C(C)C` [EVG, Elvitegravir], the “intracellular AUCtot, effect of ethanol exposure” value [1] is listed as “decreases” and the “intracellular Cmax, effect of ethanol exposure” value [1] is listed as “decreases”.
For `CC(C)c1nc(CN(C)C(=O)N[C@H](C(=O)N[C@@H](Cc2ccccc2)C[C@H](O)[C@H](Cc2ccccc2)NC(=O)OCc2cncs2)C(C)C)cs1` [RTV, Ritonavir], the Cmax [2] is given as 1000 ng/mL.
With `CC(C)CN(C[C@@H](O)[C@H](Cc1ccccc1)NC(=O)O[C@H]1CO[C@H]2OCC[C@H]21)S(=O)(=O)c1ccc(N)cc1` [DRV, Darunavir] the “decrease in intracellular AUCtot of DRV” value ([3]; 3 μg/ml DRV, 20 mM ethanol, compared to DRV alone) was 11%, the “intracellular DRV AUCtot, effect of ethanol” value [3, 7] was “no significant change” and the “intracellular DRV Cmax, effect of ethanol” value [3, 7] was “no significant change”. The “intracellular Cmax of DRV, effect of ethanol” value ([3]; 20 mM ethanol) was “without altering”.
In the case of `Cc1c(O)cccc1C(=O)N[C@@H](CSc1ccccc1)[C@H](O)CN1C[C@H]2CCCC[C@H]2C[C@H]1C(=O)NC(C)(C)C` [nelfinavir], the “decrease in IC50 in response to ethanol exposure” value [4] is given as 3 fold.
For `CCO` [Ethanol], the “increase in HIV replication compared to control” value (“increase in HIV replication” for short) ([5]; 10 mM ethanol alone) was 89%, the “increase in HIV replication” value ([5]; 20 mM ethanol alone) was 20.6% and the “increase in HIV replication” value ([5]; 50 mM ethanol alone) was 41%. For the same molecule, the Km [6] was 10 mM.
